Source: PubChem BioAssay (NCI)
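How tested: cells in 96-well plates exposed to compound for 48 hours at five concentrations. Definition used: TGI = concentration required for complete inhibition of growth.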

How the values were obtained:
Assay in all cases: NCI anticancer screen, dose series, 48 h
HCT-15 colon = tested on: HCT-15 colon
SK-OV-3 ovarian = tested on: SK-OV-3 ovarian
UACC-62 melanoma = tested on: UACC-62 melanoma
SW-620 colon = tested on: SW-620 colon
OVCAR-4 ovarian = tested on: OVCAR-4 ovarian
HCC-2998 colon = tested on: HCC-2998 colon
IGROV1 ovarian = tested on: IGROV1 ovarian
SK-MEL-2 melanoma = tested on: SK-MEL-2 melanoma
OVCAR-8 ovarian = tested on: OVCAR-8 ovarian
HT29 colon = tested on: HT29 colon
UO-31 renal = tested on: UO-31 renal
CAKI-1 renal = tested on: CAKI-1 renal
MDA-MB-231 breast = tested on: MDA-MB-231 breast
NCI/ADR-RES ovarian = tested on: NCI/ADR-RES ovarian
U251 CNS = tested on: U251 CNS
HOP-92 NSCLC = tested on: HOP-92 NSCLC
SK-MEL-5 melanoma = tested on: SK-MEL-5 melanoma
786-0 renal = tested on: 786-0 renal
A549 NSCLC = tested on: A549 NSCLC
BT-549 breast = tested on: BT-549 breast
HL-60(TB) leukemia = tested on: HL-60(TB) leukemia
PC-3 prostate = tested on: PC-3 prostate
RPMI-8226 leukemia = tested on: RPMI-8226 leukemia
EKVX NSCLC = tested on: EKVX NSCLC
LOX IMVI melanoma = tested on: LOX IMVI melanoma
TK-10 renal = tested on: TK-10 renal
T-47D breast = tested on: T-47D breast
MDA-MB-435 = tested on: MDA-MB-435
HS 578T breast = tested on: HS 578T breast
SF-268 CNS = tested on: SF-268 CNS
OVCAR-3 ovarian = tested on: OVCAR-3 ovarian
SF-295 CNS = tested on: SF-295 CNS
MDA-N = tested on: MDA-N
DU-145 prostate = tested on: DU-145 prostate
MOLT-4 leukemia = tested on: MOLT-4 leukemia
COLO 205 colon = tested on: COLO 205 colon
ACHN renal = tested on: ACHN renal
HOP-62 NSCLC = tested on: HOP-62 NSCLC
SF-539 CNS = tested on: SF-539 CNS
K-562 leukemia = tested on: K-562 leukemia
NCI-H23 lung = tested on: NCI-H23 lung
MCF7 breast = tested on: MCF7 breast
M14 melanoma = tested on: M14 melanoma
KM12 colon = tested on: KM12 colon
UACC-257 melanoma = tested on: UACC-257 melanoma
OVCAR-5 ovarian = tested on: OVCAR-5 ovarian
A498 renal = tested on: A498 renal
NCI-H522 lung = tested on: NCI-H522 lung
HCT-116 colon = tested on: HCT-116 colon
CCRF-CEM leukemia = tested on: CCRF-CEM leukemia
SR leukemia = tested on: SR leukemia
SN12C renal = tested on: SN12C renal
NCI-H226 lung = tested on: NCI-H226 lung
NCI-H460 lung = tested on: NCI-H460 lung
SNB-19 CNS = tested on: SNB-19 CNS
RXF 393 renal = tested on: RXF 393 renal
SK-MEL-28 melanoma = tested on: SK-MEL-28 melanoma
SNB-75 CNS = tested on: SNB-75 CNS
MALME-3M melanoma = tested on: MALME-3M melanoma

In the case of `C[C@@]12CCC3C1C=C1C(=O)c4cc(O)ccc4C(=O)[C@]1(O2)[C@@]3(C)C=O`, the TGI (HCT-15 colon) is reported as 11.5 µM, the TGI (SK-OV-3 ovarian) is reported as 21.5 µM and the TGI (UACC-62 melanoma) is reported as 16.6 µM. It also gave a TGI (SW-620 colon) of 12.9 µM, a TGI (OVCAR-4 ovarian) of 15.7 µM and a TGI (HCC-2998 colon) of 9.74 µM. It also gave a TGI (IGROV1 ovarian) of 19.6 µM, a TGI (SK-MEL-2 melanoma) of 20.2 µM and a TGI (OVCAR-8 ovarian) of 42.6 µM. It also gave a TGI (HT29 colon) of 20.9 µM, a TGI (UO-31 renal) of 13.7 µM and a TGI (CAKI-1 renal) of 13.7 µM. It also gave a TGI (MDA-MB-231 breast) of 19.3 µM, a TGI (NCI/ADR-RES ovarian) of 49.5 µM and a TGI (U251 CNS) of 19 µM. It also gave a TGI (HOP-92 NSCLC) of 20.8 µM, a TGI (SK-MEL-5 melanoma) of 16.1 µM and a TGI (786-0 renal) of 14.5 µM. For the same compound, the TGI (A549 NSCLC) was 27.2 µM, the TGI (BT-549 breast) was 8.69 µM and the TGI (HL-60(TB) leukemia) was 3.88 µM. The TGI (PC-3 prostate) was 19.5 µM, the TGI (RPMI-8226 leukemia) was 9.01 µM and the TGI (EKVX NSCLC) was 22.5 µM. It also gave a TGI (LOX IMVI melanoma) of 11.2 µM, a TGI (TK-10 renal) of 21.7 µM and a TGI (T-47D breast) of 14 µM. The TGI (MDA-MB-435) was 11.3 µM, the TGI (HS 578T breast) was 75 µM and the TGI (SF-268 CNS) was 36.7 µM. The TGI (OVCAR-3 ovarian) was 12 µM, the TGI (SF-295 CNS) was 22 µM and the TGI (MDA-N) was 12.6 µM. For the same compound, the TGI (DU-145 prostate) was 11.3 µM, the TGI (MOLT-4 leukemia) was 12.9 µM and the TGI (COLO 205 colon) was 19.5 µM. It also gave a TGI (ACHN renal) of 17.1 µM, a TGI (HOP-62 NSCLC) of 20.2 µM and a TGI (SF-539 CNS) of 12.3 µM. For the same compound, the TGI (K-562 leukemia) was 12.5 µM, the TGI (NCI-H23 lung) was 13.5 µM and the TGI (MCF7 breast) was 11.6 µM. The TGI (M14 melanoma) was 19.9 µM, the TGI (KM12 colon) was 18.1 µM and the TGI (UACC-257 melanoma) was 18.7 µM. The TGI (OVCAR-5 ovarian) was 26.3 µM, the TGI (A498 renal) was 9.59 µM and the TGI (NCI-H522 lung) was 11.4 µM. The TGI (HCT-116 colon) was 12.8 µM, the TGI (CCRF-CEM leukemia) was 4.02 µM and the TGI (SR leukemia) was 5.89 µM. It also gave a TGI (SN12C renal) of 8.85 µM, a TGI (NCI-H226 lung) of 44.5 µM and a TGI (NCI-H460 lung) of 10.6 µM. The TGI (SNB-19 CNS) was 18.4 µM and the TGI (RXF 393 renal) was 14.1 µM.
Work on `Cc1ccc(NC(=S)NNC(=O)c2cc(-c3ccccc3)nc3ccccc23)cc1` yielded a TGI (HCT-15 colon) of 25.9 µM, a TGI (SK-OV-3 ovarian) of 30.3 µM and a TGI (UACC-62 melanoma) of 30.6 µM. The TGI (SW-620 colon) was 25.9 µM, the TGI (OVCAR-4 ovarian) was 35.6 µM and the TGI (HCC-2998 colon) was 24.3 µM. It also gave a TGI (IGROV1 ovarian) of 36.7 µM, a TGI (SK-MEL-2 melanoma) of 24 µM and a TGI (OVCAR-8 ovarian) of 47.8 µM. For the same compound, the TGI (HT29 colon) was 55 µM, the TGI (UO-31 renal) was 25.5 µM and the TGI (CAKI-1 renal) was 45.9 µM. For the same compound, the TGI (MDA-MB-231 breast) was 36.3 µM, the TGI (NCI/ADR-RES ovarian) was 48 µM and the TGI (U251 CNS) was 20.2 µM. The TGI (HOP-92 NSCLC) was 25.8 µM, the TGI (SK-MEL-5 melanoma) was 35.3 µM and the TGI (786-0 renal) was 26.1 µM. For the same compound, the TGI (A549 NSCLC) was 26.2 µM, the TGI (BT-549 breast) was 32.7 µM and the TGI (PC-3 prostate) was 32.2 µM. For the same compound, the TGI (RPMI-8226 leukemia) was 39.2 µM, the TGI (TK-10 renal) was 29.1 µM and the TGI (T-47D breast) was 21.3 µM. The TGI (MDA-MB-435) was 10.9 µM, the TGI (HS 578T breast) was 38.2 µM and the TGI (SF-268 CNS) was 34.8 µM. The TGI (OVCAR-3 ovarian) was 21.7 µM, the TGI (SF-295 CNS) was 17.4 µM and the TGI (SK-MEL-28 melanoma) was 20.1 µM. It also gave a TGI (SNB-75 CNS) of 42.3 µM, a TGI (MDA-N) of 12.7 µM and a TGI (DU-145 prostate) of 26.1 µM. For the same compound, the TGI (MOLT-4 leukemia) was 44.3 µM, the TGI (COLO 205 colon) was 35.3 µM and the TGI (ACHN renal) was 31.3 µM. The TGI (HOP-62 NSCLC) was 27.8 µM, the TGI (SF-539 CNS) was 30.1 µM and the TGI (K-562 leukemia) was > 100 µM. It also gave a TGI (NCI-H23 lung) of 27.4 µM, a TGI (MCF7 breast) of 31.5 µM and a TGI (M14 melanoma) of 26.8 µM. The TGI (KM12 colon) was 37.7 µM, the TGI (UACC-257 melanoma) was 33 µM and the TGI (MALME-3M melanoma) was 34.6 µM. The TGI (OVCAR-5 ovarian) was 31.3 µM, the TGI (NCI-H522 lung) was 39 µM and the TGI (HCT-116 colon) was 21.3 µM. For the same compound, the TGI (SR leukemia) was 6.72 µM, the TGI (SN12C renal) was 31.8 µM and the TGI (NCI-H226 lung) was 39.7 µM. It also gave a TGI (NCI-H460 lung) of 47.9 µM, a TGI (SNB-19 CNS) of 42.4 µM and a TGI (RXF 393 renal) of 26.6 µM.
